Laboratory results published in ChEMBL document CHEMBL1201862, “PubChem BioAssay data set” (2004).
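Each compound was tested at five concentrations against cells in 96-well plates for 48 hours. GI50 is the concentration that inhibits growth by half.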 Calls of active or inactive are those of the source. Rule as the data show it: active = GI50 up to about 1.1 µM and inactive = higher.

Legend:
Assay in all cases: NCI-60 cell line screen, 48 h
[1] = system: SK-MEL-2
[2] = system: NCI-H23
[3] = system: SF-295
[4] = system: SF-539
[5] = system: MCF7
[6] = system: TK-10
[7] = system: UACC-62
[8] = system: 786-0
[9] = system: ACHN
[10] = system: K562
[11] = system: NCI/ADR-RES
[12] = system: UACC-257
[13] = system: SNB-19
[14] = system: RPMI-8226
[15] = system: SK-MEL-28
[16] = system: LOX IMVI
[17] = system: IGROV-1
[18] = system: HCT-116
[19] = system: OVCAR-3
[20] = system: SN12C

SMILES | GI50 [1] | GI50 [2] | GI50 [3] | GI50 [4] | GI50 [5] | GI50 [6] | GI50 [7] | GI50 [8] | GI50 [9] | GI50 [10] | GI50 [11] | GI50 [12] | GI50 [13] | GI50 [14] | GI50 [15] | GI50 [16] | GI50 [17] | GI50 [18] | GI50 [19] | GI50 [20]
Cn1c2ccccc2c(=NNc2cccc(C(=O)O)c2)c2ccccc21 | 16.8 µM (inactive) | 9.95 µM (inactive) | 16 µM (inactive) | 19.2 µM (inactive) | 3.4 µM (inactive) | 15.5 µM (inactive) | 16.9 µM (inactive) | 9.79 µM (inactive) | 5.85 µM (inactive) | 3.37 µM (inactive) | 24.3 µM (inactive) | 28.5 µM (inactive) | 6.84 µM (inactive) | 5.96 µM (inactive) | 19.2 µM (inactive) | 5.05 µM (inactive) | 17.8 µM (inactive) | 4.89 µM (inactive) | 3.57 µM (inactive) | 6.55 µM (inactive)
COc1cc2c(cc1O)-c1c(cnn1-c1ccc([N+](=O)[O-])cc1)CCC2 | 17.4 µM (inactive) | 13.8 µM (inactive) | 10.9 µM (inactive) | 11.1 µM (inactive) | 26.8 µM (inactive) | 8.83 µM (inactive) | 1.79 µM (inactive) | 12.9 µM (inactive) | 1.82 µM (inactive) | 32.9 µM (inactive) | 14.4 µM (inactive) | 15.5 µM (inactive) | 27.7 µM (inactive) | 4.76 µM (inactive) | 20.4 µM (inactive) | 12.6 µM (inactive) | 4.78 µM (inactive) | 18.3 µM (inactive) | 16.7 µM (inactive) | 2.86 µM (inactive)
N=c1c2c(ncn1N)Oc1c(c(-c3ccccc3)nn1-c1ccccc1)C2c1ccc(Cl)cc1 (stereo not given) | 1.69 µM (inactive) | 1.87 µM (inactive) | 1.66 µM (inactive) | 1.18 µM (inactive) | 1.44 µM (inactive) | 1.76 µM (inactive) | 1.54 µM (inactive) | 1.63 µM (inactive) | 2.04 µM (inactive) | 0.731 µM (active) | 1.68 µM (inactive) | 1.76 µM (inactive) | 1.47 µM (inactive) | 2.35 µM (inactive) | 1.76 µM (inactive) | 1.48 µM (inactive) | 1.43 µM (inactive) | 1.49 µM (inactive) | 1.56 µM (inactive) | 1.79 µM (inactive)
N=C(N)NS(=O)(=O)c1ccc(NNc2c3ccccc3nc3c(C(=O)Nc4ccc(S(N)(=O)=O)cc4)cccc23)cc1 | 9.02 µM (inactive) | 51.1 µM (inactive) | 48.2 µM (inactive) | 26.6 µM (inactive) | 8.47 µM (inactive) | > 100 µM (inactive) | 18.7 µM (inactive) | 21.7 µM (inactive) | 52.7 µM (inactive) | 19.9 µM (inactive) | > 100 µM (inactive) | > 100 µM (inactive) | 22.9 µM (inactive) | 17.8 µM (inactive) | 68.1 µM (inactive) | 10.4 µM (inactive) | 28.8 µM (inactive) | 28.9 µM (inactive) | 22.9 µM (inactive) | 43.8 µM (inactive)
CC(=O)O[C@H](C[C@@H](C)[C@H]1C(=O)[C@H](O)[C@@]2(C)C3CC[C@H]4C(C)(C)[C@@H](OC5OCC(O)C(O)C5O)CC[C@@]45C[C@@]35CC[C@]12C)[C@@H]1OC1(C)C (stereo not given in full) | 16 µM (inactive) | 23.9 µM (inactive) | 16.3 µM (inactive) | 16.3 µM (inactive) | 17.9 µM (inactive) | 16.3 µM (inactive) | 14.1 µM (inactive) | 16.6 µM (inactive) | 14 µM (inactive) | 0.14 µM (active) | 47.3 µM (inactive) | 18.6 µM (inactive) | 20.1 µM (inactive) | 12.4 µM (inactive) | 20.3 µM (inactive) | 30.3 µM (inactive) | 16.2 µM (inactive) | 18.1 µM (inactive) | 2.29 µM (inactive) | 18.9 µM (inactive)
O/N=N/c1cnccn1 | > 1200 µM (inactive) | 859 µM (inactive) | > 1250 µM (inactive) | > 1190 µM (inactive) | 531 µM (inactive) | > 1250 µM (inactive) | > 959 µM (inactive) | > 1250 µM (inactive) | 480 µM (inactive) | > 1190 µM (inactive) | > 1250 µM (inactive) | > 1250 µM (inactive) | > 1250 µM (inactive) | > 1250 µM (inactive) | > 1250 µM (inactive) | 1190 µM (inactive) | > 1150 µM (inactive) | > 1230 µM (inactive) | > 1250 µM (inactive) | > 1250 µM (inactive)
CCC1=CCC23C(=O)C=CC(=O)C2(C1)C(=O)c1cccc(OC)c1C3=O (stereo not given) | 22.7 µM (inactive) | 21.1 µM (inactive) | 24.3 µM (inactive) | 18.4 µM (inactive) | 14.3 µM (inactive) | 19.1 µM (inactive) | 15.8 µM (inactive) | 11.9 µM (inactive) | 14.3 µM (inactive) | 12.9 µM (inactive) | 20.2 µM (inactive) | 16.3 µM (inactive) | 23.8 µM (inactive) | 4.41 µM (inactive) | 18.2 µM (inactive) | 15.1 µM (inactive) | 13 µM (inactive) | 14.6 µM (inactive) | 10.1 µM (inactive) | 18.3 µM (inactive)
